Test results published in BigSolDB 2.1.

O=C(O)c1ccc(CO)cc1
solubility (mole fraction)
Conditions	in ethanol	in ethyl acetate	in ethyl formate	in isopropanol	in isopropyl acetate	in methanol	in n-butyl acetate	in n-propanol	in water
283.15 K	0.0289	0.00475	0.00168	0.0268	0.00324	0.0282	0.00341	0.0236	0.000244
288.15 K	0.0325	0.00528	0.00259	0.0294	0.00444	0.0323	0.00463	0.026	0.000254
293.15 K	0.0367	0.00653	0.00319	0.0337	0.00481	0.0361	0.00508	0.0298	0.0003
298.15 K	0.0414	0.00797	0.00396	0.0391	0.00599	0.0414	0.00622	0.0345	0.00039
303.15 K	0.0468	0.00919	0.00431	0.044	0.00827	0.0473	0.00854	0.0367	0.000532
308.15 K	0.0529	0.0109	0.00535	0.0523	0.00969	0.0535	0.01	0.0446	0.000641
313.15 K	0.0599	0.0133	0.00704	0.0602	0.0113	0.0608	0.0117	0.0516	0.000816
318.15 K	0.0678	0.0161	0.00773	0.0697	0.0127	0.0682	0.0132	0.0591	0.000993
323.15 K	0.0768	0.0199	0.00889	0.0826	0.0155	0.078	0.0158	0.0705	0.00128
